melting point [°C] | SMILES
109 to 109.5 | CNCc1cc(=O)oc2cc(OC)ccc12
97 | COc1ccc2c(CN(C)C)cc(=O)oc2c1
